Measurements reported in patent US6649595B2, “Regulation of biological events using novel compounds” (ARIAD Gene Therapeutics, Inc., priority 1995, dated 2003).
Where two headings read alike, the source gives them in different places.

Molecular target: T1, FKBPwt (Homo sapiens, UniProt P62942)
T1 construct: made in house
Assay: Competitive fluorescence polarization (FP) binding assay of rapalogs to FKBP
Conditions: for fold loss in affinity (vs rapamycin): C24 analogs

[1] = FKBPwt FP binding assay IC50 (nM)
[2] = =IC50/IC50 of rapamycin, C7 rapalogs
[3] = C7 rapalogs, read-out: FKBPwt FP binding assay IC50
[4] = =IC50/IC50 of rapamycin, Table 4
[5] = rapamycin C24 analogs, Table 4, read-out: FKBPwt FP binding assay IC50

T1 sequence (P62942 whole entry): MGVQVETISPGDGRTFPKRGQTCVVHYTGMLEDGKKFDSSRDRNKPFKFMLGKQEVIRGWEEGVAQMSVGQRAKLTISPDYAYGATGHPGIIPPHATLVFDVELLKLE

| SMILES | fold loss in affinity (cf rapamycin) [2] | IC50 [3] [nM] | fold loss in affinity (vs rapamycin) [4] | IC50 [5] [nM] | further results |
| --- | --- | --- | --- | --- | --- |
| CO[C@@H]1C[C@H](C[C@@H](C)[C@@H]2CC(=O)[C@H](C)/C=C(\C)[C@@H](O)[C@@H](OC)C(=O)[C@H](C)C[C@H](C)/C=C/C=C/C=C(\C)[C@H](c3ccc(C)s3)C[C@@H]3CC[C@@H](C)[C@@](O)(O3)C(=O)C(=O)N3CCCC[C@H]3C(=O)O2)CC[C@H]1O [Compound 37] |  |  |  |  | fold loss in affinity (cf rapamycin): 1.9; IC50 [1]: 4.3 nM |
| COc1ccc(C2CC3CCC(C)C(O)(O3)C(=O)C(=O)N3CCCCC3C(=O)OC(C(C)CC3CCC(O)C(OC)C3)CC(=O)C(C)C=C(C)C(O)C(OC)C(=O)C(C)CC(C)C=CC=CC=C2C)c(OC)c1 (single isomer, unassigned) [Compound 42] | 1.0 | 2.2 |  |  |  |
| CO[C@@H]1C[C@H](C[C@@H](C)[C@@H]2CC(=O)[C@H](C)/C=C(\C)[C@@H](O)[C@@H](OC)C(=O)[C@H](C)C[C@H](C)/C=C/C=C/C=C(\C)[C@@H](c3ccc(C)s3)C[C@@H]3CC[C@@H](C)[C@@](O)(O3)C(=O)C(=O)N3CCCC[C@H]3C(=O)O2)CC[C@H]1O [Compound 36] |  |  |  |  | fold loss in affinity (cf rapamycin): 1.6; IC50 [1]: 3.7 nM |
| COC1CC2CCC(C)C(O)(O2)C(=O)C(=O)N2CCCCC2C(=O)OC(C(C)CC2CCC(O)C(OC)C2)CC(=NOCC(C)C)C(C)C=C(C)C(O)C(OC)C(=O)C(C)CC(C)C=CC=CC=C1C (stereo not drawn) [Compound 10, Rapamycin (E and Z)-24-(O-isobutyloxime)] |  |  | 890 |  |  |
| COC1CC2CCC(C)C(O)(O2)C(=O)C(=O)N2CCCCC2C(=O)OC(C(C)CC2CCC(O)C(OC)C2)CC(=NOCC(N)=O)C(C)C=C(C)C(O)C(OC)C(=O)C(C)CC(C)C=CC=CC=C1C (single isomer, unassigned) [Compound 15, Rapamycin (E and Z)-24-(O-carboxamidomethyloxime)] |  |  | 500 | 1150 |  |
| COC1CC2CCC(C)C(O)(O2)C(=O)C(=O)N2CCCCC2C(=O)OC(C(C)CC2CCC(O)C(OC)C2)CC(=NOCC(=O)O)C(C)C=C(C)C(O)C(OC)C(=O)C(C)CC(C)C=CC=CC=C1C (single isomer, unassigned) [Compound 14, Rapamycin (E and Z)-24-(O-carboxymethyloxime)] |  |  | 1022 | 2350 |  |
| COC1CC2CCC(C)C(O)(O2)C(=O)C(=O)N2CCCCC2C(=O)OC(C(C)CC2CCC(O)C(OC)C2)CC(=NOCC(=O)O)C(C)C=C(C)C(O)C(OC)C(=O)C(C)CC(C)C=CC=CC=C1C (single isomer, unassigned) [Compound 13, Rapamycin (E and Z)-24-(O-carboxymethyloxime)] |  |  | 3461 | 7960 |  |
| CON=C1CC(C(C)CC2CCC(O)C(OC)C2)OC(=O)C2CCCCN2C(=O)C(=O)C2(O)OC(CCC2C)CC(OC)C(C)=CC=CC=CC(C)CC(C)C(=O)C(OC)C(O)C(C)=CC1C (single isomer, unassigned) [Compound 6, Rapamycin (E and Z)-24-(O-methyloxime)] |  |  | 190 | 438 |  |
| CO[C@H]1C[C@@H]2CC[C@@H](C)[C@@](O)(O2)C(=O)C(=O)N2CCCC[C@H]2C(=O)O[C@H]([C@H](C)C[C@@H]2CC[C@@H](O)[C@H](OC)C2)C/C(=N\OCc2ccccc2)[C@H](C)/C=C(\C)[C@@H](O)[C@@H](OC)C(=O)[C@H](C)C[C@H](C)/C=C/C=C/C=C/1C [Compound 12, apamycin (E and Z)-24-(O-benzyloxime)] |  |  | 616 | 1420 |  |
| COC1CC2CCC(C)C(O)(O2)C(=O)C(=O)N2CCCCC2C(=O)OC(C(C)CC2CCC(O)C(OC)C2)CC(=NOCC(N)=O)C(C)C=C(C)C(O)C(OC)C(=O)C(C)CC(C)C=CC=CC=C1C (single isomer, unassigned) [Compound 16, Rapamycin (E and Z)-24-(O-carboxamidomethyloxime)] |  |  | 88.7 | 204 |  |
| COC1CC2CCC(C)C(O)(O2)C(=O)C(=O)N2CCCCC2C(=O)OC(C(C)CC2CCC(O)C(OC)C2)C/C(=N/O)C(C)C=C(C)C(O)C(OC)C(=O)C(C)CC(C)C=CC=CC=C1C (stereo not drawn) [Compound 17] |  |  | 269 | 618 |  |
| CCO/N=C1/C[C@@H]([C@H](C)C[C@@H]2CC[C@@H](O)[C@H](OC)C2)OC(=O)[C@@H]2CCCCN2C(=O)C(=O)[C@]2(O)O[C@@H](CC[C@H]2C)C[C@H](OC)/C(C)=C/C=C/C=C/[C@@H](C)C[C@@H](C)C(=O)[C@H](OC)[C@H](O)/C(C)=C/[C@H]1C [Compound 7, Rapamycin (E and Z)-24-(O-ethyloxime)] |  |  | 1287 | 2960 |  |

Second part, led by results:

| fold loss in affinity (cf rapamycin) [2] | IC50 [3] [nM] | fold loss in affinity (vs rapamycin) [4] | IC50 [5] [nM] | SMILES | further results |
| --- | --- | --- | --- | --- | --- |
| 1.0 | 2.4 |  |  | CCc1ccc([C@@H]2C[C@@H]3CC[C@@H](C)[C@@](O)(O3)C(=O)C(=O)N3CCCC[C@H]3C(=O)O[C@H]([C@H](C)C[C@@H]3CC[C@@H](O)[C@H](OC)C3)CC(=O)[C@H](C)/C=C(\C)[C@@H](O)[C@@H](OC)C(=O)[C@H](C)C[C@H](C)/C=C/C=C/C=C/2C)s1 [Compound 39] |  |
| 1.1 | 2.5 |  |  | CO[C@@H]1C[C@H](C[C@@H](C)[C@@H]2CC(=O)[C@H](C)/C=C(\C)[C@@H](O)[C@@H](OC)C(=O)[C@H](C)C[C@H](C)/C=C/C=C/C=C(\C)[C@@H](NS(C)(=O)=O)C[C@@H]3CC[C@@H](C)[C@@](O)(O3)C(=O)C(=O)N3CCCC[C@H]3C(=O)O2)CC[C@H]1O [Compound 33] |  |
| 1.3 | 2.9 |  |  | CO[C@@H]1C[C@H](C[C@@H](C)[C@@H]2CC(=O)[C@H](C)/C=C(\C)[C@@H](O)[C@@H](OC)C(=O)[C@H](C)C[C@H](C)/C=C/C=C/C=C(\C)[C@@H](c3ccc(C(C)(C)C)s3)C[C@@H]3CC[C@@H](C)[C@@](O)(O3)C(=O)C(=O)N3CCCC[C@H]3C(=O)O2)CC[C@H]1O [Compound 41] |  |
| 3.3 | 7.8 |  |  | CO[C@@H]1C[C@H](C[C@@H](C)[C@@H]2CC(=O)[C@H](C)/C=C(\C)[C@@H](O)[C@@H](OC)C(=O)[C@H](C)C[C@H](C)/C=C/C=C/C=C(\C)[C@@H](c3c[nH]c4ccccc34)C[C@@H]3CC[C@@H](C)[C@@](O)(O3)C(=O)C(=O)N3CCCC[C@H]3C(=O)O2)CC[C@H]1O [Compound 44] |  |
|  |  | >13043 | > 30000 | COC1CC2CCC(C)C(O)(O2)C(=O)C(=O)N2CCCCC2C(=O)OC(C(C)CC2CCC(O)C(OC)C2)C/C(=N/OC(C)(C)C)C(C)C=C(C)C(O)C(OC)C(=O)C(C)CC(C)C=CC=CC=C1C (stereo not drawn) [Compound 19] |  |
| 1.1 | 2.6 |  |  | COC(=O)N[C@@H]1C[C@@H]2CC[C@@H](C)[C@@](O)(O2)C(=O)C(=O)N2CCCC[C@H]2C(=O)O[C@H]([C@H](C)C[C@@H]2CC[C@@H](O)[C@H](OC)C2)CC(=O)[C@H](C)/C=C(\C)[C@@H](O)[C@@H](OC)C(=O)[C@H](C)C[C@H](C)/C=C/C=C/C=C/1C [Compound 31] |  |
| 1.1 | 2.5 |  |  | CCc1ccc([C@H]2C[C@@H]3CC[C@@H](C)[C@@](O)(O3)C(=O)C(=O)N3CCCC[C@H]3C(=O)O[C@H]([C@H](C)C[C@@H]3CC[C@@H](O)[C@H](OC)C3)CC(=O)[C@H](C)/C=C(\C)[C@@H](O)[C@@H](OC)C(=O)[C@H](C)C[C@H](C)/C=C/C=C/C=C/2C)s1 [Compound 38] |  |
| 2.6 | 5.9 |  |  | CO[C@@H]1C[C@H](C[C@@H](C)[C@@H]2CC(=O)[C@H](C)/C=C(\C)[C@@H](O)[C@@H](OC)C(=O)[C@H](C)C[C@H](C)/C=C/C=C/C=C(\C)[C@H](c3c[nH]c4ccccc34)C[C@@H]3CC[C@@H](C)[C@@](O)(O3)C(=O)C(=O)N3CCCC[C@H]3C(=O)O2)CC[C@H]1O [Compound 45] |  |
| 1.0 | 2.2 |  |  | CO[C@@H]1C[C@H](C[C@@H](C)[C@@H]2CC(=O)[C@H](C)/C=C(\C)[C@@H](O)[C@@H](OC)C(=O)[C@H](C)C[C@H](C)/C=C/C=C/C=C(\C)[C@@H](OC(C)C)C[C@@H]3CC[C@@H](C)[C@@](O)(O3)C(=O)C(=O)N3CCCC[C@H]3C(=O)O2)CC[C@H]1O [Compound 29] |  |
| 13 |  |  |  | CO[C@@H]1C[C@H](C[C@@H](C)[C@@H]2CC(=O)[C@H](C)/C=C(\C)[C@@H](O)[C@@H](OC)C(=O)[C@H](C)C[C@H](C)/C=C/C=C/C=C(\C)[C@H](c3ccco3)C[C@@H]3CC[C@@H](C)[C@@](O)(O3)C(=O)C(=O)N3CCCC[C@H]3C(=O)O2)CC[C@H]1O [Compound 35] | IC50 (FKBPwt FP binding assay IC50 (nM), C7 rapalogs): 29 nM |
| 1.5 | 3.4 |  |  | CO[C@@H]1C[C@H](C[C@@H](C)[C@@H]2CC(=O)[C@H](C)/C=C(\C)[C@@H](O)[C@@H](OC)C(=O)[C@H](C)C[C@H](C)/C=C/C=C/C=C(\C)[C@H](c3ccc(C(C)(C)C)s3)C[C@@H]3CC[C@@H](C)[C@@](O)(O3)C(=O)C(=O)N3CCCC[C@H]3C(=O)O2)CC[C@H]1O [Compound 40] |  |
| 1.9 | 4.3 |  |  | COC(=O)N[C@H]1C[C@@H]2CC[C@@H](C)[C@@](O)(O2)C(=O)C(=O)N2CCCC[C@H]2C(=O)O[C@H]([C@H](C)C[C@@H]2CC[C@@H](O)[C@H](OC)C2)CC(=O)[C@H](C)/C=C(\C)[C@@H](O)[C@@H](OC)C(=O)[C@H](C)C[C@H](C)/C=C/C=C/C=C/1C [Compound 32] |  |
|  |  | 1046 | 2410 | COC1CC2CCC(C)C(O)(O2)C(=O)C(=O)N2CCCCC2C(=O)OC(C(C)CC2CCC(O)C(OC)C2)C/C(=N\OC(C)(C)C)C(C)C=C(C)C(O)C(OC)C(=O)C(C)CC(C)C=CC=CC=C1C (stereo not drawn) [Compound 20] |  |
| 1.1 | 2.6 |  |  | CCOC1C[C@@H]2CC[C@@H](C)[C@@](O)(O2)C(=O)C(=O)N2CCCC[C@H]2C(=O)OC([C@H](C)C[C@@H]2CC[C@@H](O)[C@H](OC)C2)CC(=O)[C@H](C)/C=C(\C)[C@@H](O)[C@@H](OC)C(=O)[C@H](C)C[C@H](C)/C=C/C=C/C=C/1C (stereo partly drawn) [Compound 27] |  |
